Data from patent US8853418B2, “Cyclopentylpyrazoles as N-type calcium channel blockers” (Janssen Pharmaceutica NV, priority 2012, dated 2014).
Read-outs that look alike come from different tables or passages of the source.

Key:
N-type calcium channel = N-type calcium channel (Homo sapiens, UniProt Q00975); test: Automated Electrophysiology Assay (QPatch-HT whole-cell patch clamp; low- and high-frequency stimulation); format: cell-based
[1] = target: N-type calcium channel (α1B (Cav2.2), β3 and α2δ subunits) (Homo sapiens, UniProt Q00975); test: Functional Assay: Antagonism of N-Type Calcium Channel (FDSS calcium mobilization, KCl depolarization); format: cell-based; conditions: for IC50: HEK cell line, 50 mM KCl depolarization, six-point concentration-response, read-out: FDSS IC50
Chain of N-type calcium channel (α1B (Cav2.2), β3 and α2δ subunits) (Q00975 whole entry): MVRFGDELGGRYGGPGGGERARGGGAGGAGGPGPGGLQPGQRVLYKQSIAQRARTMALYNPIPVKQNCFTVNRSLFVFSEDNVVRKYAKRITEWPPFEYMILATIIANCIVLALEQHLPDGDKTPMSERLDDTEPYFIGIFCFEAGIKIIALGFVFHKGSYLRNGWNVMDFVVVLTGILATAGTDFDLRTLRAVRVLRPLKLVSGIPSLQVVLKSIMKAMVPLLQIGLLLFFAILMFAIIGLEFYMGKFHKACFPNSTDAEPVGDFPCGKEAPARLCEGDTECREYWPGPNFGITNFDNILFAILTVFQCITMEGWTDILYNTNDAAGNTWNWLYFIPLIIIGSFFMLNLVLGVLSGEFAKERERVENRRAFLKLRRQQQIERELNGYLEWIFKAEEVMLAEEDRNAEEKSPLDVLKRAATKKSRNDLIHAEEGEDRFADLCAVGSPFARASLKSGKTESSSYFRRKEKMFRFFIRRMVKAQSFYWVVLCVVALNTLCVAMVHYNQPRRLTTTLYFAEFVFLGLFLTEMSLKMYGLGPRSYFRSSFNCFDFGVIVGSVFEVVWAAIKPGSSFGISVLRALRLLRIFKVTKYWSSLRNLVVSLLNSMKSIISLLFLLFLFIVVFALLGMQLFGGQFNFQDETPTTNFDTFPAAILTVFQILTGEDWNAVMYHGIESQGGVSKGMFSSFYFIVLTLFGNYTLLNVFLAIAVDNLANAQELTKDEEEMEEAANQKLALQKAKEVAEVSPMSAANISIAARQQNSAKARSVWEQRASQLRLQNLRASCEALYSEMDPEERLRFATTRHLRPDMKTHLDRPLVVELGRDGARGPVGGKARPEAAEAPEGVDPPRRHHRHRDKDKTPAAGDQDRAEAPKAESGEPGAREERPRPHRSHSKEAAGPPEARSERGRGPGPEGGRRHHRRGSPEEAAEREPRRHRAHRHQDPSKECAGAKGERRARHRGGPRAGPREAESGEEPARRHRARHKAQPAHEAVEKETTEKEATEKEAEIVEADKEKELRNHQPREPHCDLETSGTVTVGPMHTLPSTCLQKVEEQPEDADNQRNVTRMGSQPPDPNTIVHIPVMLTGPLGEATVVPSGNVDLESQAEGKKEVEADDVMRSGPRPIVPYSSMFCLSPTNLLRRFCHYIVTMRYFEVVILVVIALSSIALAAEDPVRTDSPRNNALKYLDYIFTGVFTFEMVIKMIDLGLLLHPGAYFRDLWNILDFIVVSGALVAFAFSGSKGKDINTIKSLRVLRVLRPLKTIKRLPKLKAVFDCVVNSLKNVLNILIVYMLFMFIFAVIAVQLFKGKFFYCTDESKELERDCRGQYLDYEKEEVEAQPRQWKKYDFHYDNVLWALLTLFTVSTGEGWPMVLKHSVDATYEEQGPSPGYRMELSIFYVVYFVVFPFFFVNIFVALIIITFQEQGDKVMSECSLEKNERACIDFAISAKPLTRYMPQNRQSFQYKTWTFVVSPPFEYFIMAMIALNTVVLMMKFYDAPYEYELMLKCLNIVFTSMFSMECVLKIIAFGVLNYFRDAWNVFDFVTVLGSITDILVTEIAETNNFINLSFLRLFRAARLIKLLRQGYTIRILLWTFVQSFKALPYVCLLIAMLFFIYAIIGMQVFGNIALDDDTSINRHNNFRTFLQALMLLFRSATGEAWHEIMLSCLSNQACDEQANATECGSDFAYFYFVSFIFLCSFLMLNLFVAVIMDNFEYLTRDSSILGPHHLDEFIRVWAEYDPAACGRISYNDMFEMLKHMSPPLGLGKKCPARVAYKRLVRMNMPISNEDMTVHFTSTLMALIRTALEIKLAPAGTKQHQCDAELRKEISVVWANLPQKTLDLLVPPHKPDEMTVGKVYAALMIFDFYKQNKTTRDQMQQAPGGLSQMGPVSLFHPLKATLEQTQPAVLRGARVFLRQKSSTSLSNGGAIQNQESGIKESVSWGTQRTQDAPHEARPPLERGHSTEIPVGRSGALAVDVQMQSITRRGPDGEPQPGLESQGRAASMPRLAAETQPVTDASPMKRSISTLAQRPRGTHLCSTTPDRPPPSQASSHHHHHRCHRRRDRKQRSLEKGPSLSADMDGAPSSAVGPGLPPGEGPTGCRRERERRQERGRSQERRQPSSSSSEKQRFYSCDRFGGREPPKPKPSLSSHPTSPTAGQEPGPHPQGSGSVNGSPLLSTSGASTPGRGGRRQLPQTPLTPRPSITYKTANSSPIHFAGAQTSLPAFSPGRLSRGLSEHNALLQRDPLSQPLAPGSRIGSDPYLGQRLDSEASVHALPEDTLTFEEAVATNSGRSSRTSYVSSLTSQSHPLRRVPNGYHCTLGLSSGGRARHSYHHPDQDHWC
Chain of N-type calcium channel (α1B (Cav2.2), β3 and α2δ subunits) (P54284 whole entry partner): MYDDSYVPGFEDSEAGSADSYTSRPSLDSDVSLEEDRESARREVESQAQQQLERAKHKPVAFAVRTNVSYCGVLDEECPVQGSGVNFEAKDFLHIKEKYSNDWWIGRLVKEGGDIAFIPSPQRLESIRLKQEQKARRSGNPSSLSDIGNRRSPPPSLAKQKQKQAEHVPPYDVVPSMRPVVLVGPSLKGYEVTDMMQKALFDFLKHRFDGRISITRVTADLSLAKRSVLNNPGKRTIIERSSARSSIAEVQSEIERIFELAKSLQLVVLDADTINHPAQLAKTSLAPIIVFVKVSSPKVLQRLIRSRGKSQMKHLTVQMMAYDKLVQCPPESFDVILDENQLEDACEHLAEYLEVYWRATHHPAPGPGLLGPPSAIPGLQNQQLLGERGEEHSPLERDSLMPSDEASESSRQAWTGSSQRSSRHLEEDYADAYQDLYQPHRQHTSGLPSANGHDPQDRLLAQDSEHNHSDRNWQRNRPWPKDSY
Chain of N-type calcium channel (α1B (Cav2.2), β3 and α2δ subunits) (P54289 25-946 partner limits assumed): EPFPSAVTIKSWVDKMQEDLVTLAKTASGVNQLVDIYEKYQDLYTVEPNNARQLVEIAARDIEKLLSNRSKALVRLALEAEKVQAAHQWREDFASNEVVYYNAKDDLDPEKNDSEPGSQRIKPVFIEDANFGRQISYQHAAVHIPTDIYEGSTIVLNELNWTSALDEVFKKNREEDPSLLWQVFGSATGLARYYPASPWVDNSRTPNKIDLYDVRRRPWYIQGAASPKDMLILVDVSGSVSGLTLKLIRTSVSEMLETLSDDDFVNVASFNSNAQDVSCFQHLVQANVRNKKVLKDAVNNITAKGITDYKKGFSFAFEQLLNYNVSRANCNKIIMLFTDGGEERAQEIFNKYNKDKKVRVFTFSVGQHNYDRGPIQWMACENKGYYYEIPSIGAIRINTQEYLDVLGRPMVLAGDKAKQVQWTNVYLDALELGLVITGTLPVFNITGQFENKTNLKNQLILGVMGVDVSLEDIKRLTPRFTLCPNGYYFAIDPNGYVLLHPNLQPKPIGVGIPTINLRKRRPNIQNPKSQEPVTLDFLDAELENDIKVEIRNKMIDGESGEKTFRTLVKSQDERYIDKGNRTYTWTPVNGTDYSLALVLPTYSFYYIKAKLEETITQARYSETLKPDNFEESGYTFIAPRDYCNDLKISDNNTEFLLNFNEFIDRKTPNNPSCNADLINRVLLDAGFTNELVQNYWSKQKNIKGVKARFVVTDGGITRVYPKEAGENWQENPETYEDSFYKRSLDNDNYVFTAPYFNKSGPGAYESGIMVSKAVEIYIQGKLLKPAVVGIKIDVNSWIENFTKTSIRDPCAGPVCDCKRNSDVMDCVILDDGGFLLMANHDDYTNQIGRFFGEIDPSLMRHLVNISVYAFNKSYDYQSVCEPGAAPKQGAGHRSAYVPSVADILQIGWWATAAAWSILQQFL
Chain of N-type calcium channel (α1B (Cav2.2), β3 and α2δ subunits) (P54289 947-1103 partner limits assumed): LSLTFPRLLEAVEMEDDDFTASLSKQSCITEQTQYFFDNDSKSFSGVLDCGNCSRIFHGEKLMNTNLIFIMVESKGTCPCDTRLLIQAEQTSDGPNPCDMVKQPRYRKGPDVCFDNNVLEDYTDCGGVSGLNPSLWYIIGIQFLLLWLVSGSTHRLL
Summary of the method: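 HEK cells stably co-expressing α1B (Cav2.2), β3 and α2δ were loaded with calcium dye, then given compound with fluorescence recorded for 5 min before 50 mM KCl depolarisation and 3 min more reading. IC50 came from six-point curves of maximal fluorescence, normalised to KCl maximum and buffer minimum.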

[2] = high-frequency stimulation (15th pulse), read-out: QPatch at High Frequency % Inhibition
[3] = low frequency, read-out: QPatch at Low Frequency % Inhibition

Chain of N-type calcium channel (Q00975 whole entry): as the sequence (Q00975 whole entry) above
Chain of N-type calcium channel (P54284 whole entry partner): as the sequence (P54284 whole entry partner) above
Chain of N-type calcium channel (P54289 25-946 partner limits assumed): as the sequence (P54289 25-946 partner limits assumed) above
Chain of N-type calcium channel (P54289 947-1103 partner limits assumed): as the sequence (P54289 947-1103 partner limits assumed) above

Row | inhibition at 0.1 µM (N-type calcium channel; [2]) | inhibition at 1 µM (N-type calcium channel; [2]) | inhibition at 0.1 µM (N-type calcium channel; [3]) | inhibition at 1 µM (N-type calcium channel; [3]) | inhibition at 0.33 µM [1] | IC50 [1] | Structure (SMILES)
1 | 2% | 47% | -1% | 32% | 93% | 13 nM | COc1ccc(-c2c3c(nn2-c2ccccc2OC)C[C@H](N(C)S(=O)(=O)N(C)C)C3)cn1 [Compound 56, N-[(5R)-2-(2-Methoxyphenyl)-3-(6-methoxypyridin-3-yl)-2,4,5,6-tetrahydrocyclopenta[c]pyrazol-5-yl]-N,N′,N′-trimethylsulfamide]
2 | – | 83% | – | 75% | 99% | 18 nM | COc1ccccc1-n1nc2c(c1-c1ccc(OC(C)C)nc1)C[C@@H](N(C)S(=O)(=O)N(C)C)C2 [Compound 57, N-{(5R)-2-(2-Methoxyphenyl)-3-[6-(1-methylethoxy)pyridin-3-yl]-2,4,5,6-tetrahydrocyclopenta[c]pyrazol-5-yl}-N,N′,N′-trimethylsulfamide]
3 | – | 62% | – | 40% | 98% | 8.6 nM | COc1ccccc1-n1nc2c(c1-c1ccc(Cl)cc1)CC(c1cccnc1)C2 (centres unmarked) [Compound 63, 3-(4-chlorophenyl)-2-(2-methoxyphenyl)-5-pyridin-3-yl-2,4,5,6-tetrahydrocyclopenta[c]pyrazole]
4 | 61% | – | 48% | – | 100% | 5.7 nM | COc1ccccc1-n1nc2c(c1-c1ccc(Cl)cc1)C[C@H](OC(C)C)C2 [Compound 67, (5S)-3-(4-chlorophenyl)-2-(2-methoxyphenyl)-5-(1-methylethoxy)-2,4,5,6-tetrahydrocyclopenta[c]pyrazole]
5 | 31% | – | 33% | – | 95% | 16 nM | COc1ccccc1-n1nc2c(c1-c1ccc(Cl)cc1)CC(N1CCOCC1)C2 (centres unmarked) [Compound 68, 3-(4-chlorophenyl)-2-(2-methoxyphenyl)-5-morpholin-4-yl-2,4,5,6-tetrahydrocyclopenta[c]pyrazole]
6 | 26% | – | 15% | – | 93% | 9.6 nM | COc1ccccc1-n1nc2c(c1-c1ccc(Cl)cc1)C[C@H](O[Si](C)(C)C)C2 [Compound 69, (5S)-3-(4-chlorophenyl)-2-(2-methoxyphenyl)-5-[(trimethylsilyl)oxy]-2,4,5,6-tetrahydrocyclopenta[c]pyrazole]
7 | 19% | – | – | – | 96% | 15 nM | CCC(CC)C(=O)O[C@@H]1Cc2nn(-c3ccccc3OC)c(-c3ccc(Cl)cc3)c2C1 [Compound 70, (5S)-3-(4-chlorophenyl)-2-(2-methoxyphenyl)-2,4,5,6-tetrahydrocyclopenta[c]pyrazol-5-yl 2-ethylbutanoate]
8 | 42% | – | 27% | – | 92% | 28 nM | COc1ccccc1-n1nc2c(c1-c1ccc(Cl)cc1)C[C@H](OC1CCCCO1)C2 (stereo partly drawn) [Compound 76, (5S)-3-(4-chlorophenyl)-2-(2-methoxyphenyl)-5-(tetrahydro-2H-pyran-2-yloxy)-2,4,5,6-tetrahydrocyclopenta[c]pyrazole]
9 | 27% | – | 15% | – | 78% | 93 nM | COc1ccccc1-n1nc2c(c1-c1ccc(Cl)cc1)C[C@H](OC(=O)C1CCCCC1)C2 [Compound 78, (5S)-3-(4-chlorophenyl)-2-(2-methoxyphenyl)-2,4,5,6-tetrahydrocyclopenta[c]pyrazol-5-yl cyclohexanecarboxylate]
10 | 11% | – | -7% | – | 82% | 75 nM | COc1ccccc1-n1nc2c(c1-c1ccc(Cl)cc1)C[C@H](OC(=O)C1CCCC1)C2 [Compound 79, (5S)-3-(4-chlorophenyl)-2-(2-methoxyphenyl)-2,4,5,6-tetrahydrocyclopenta[c]pyrazol-5-yl cyclopentanecarboxylate]
